Reference: patent US8349827B2, “Substituted dipyrido-pyrimido-diazepine and benzo-pyrido-pyrimido compounds” (ArQule, Inc., priority 2009, dated 2013)

Legend:
ABL = ABL (Homo sapiens, UniProt P00519); assay: ABL Kinase Activity Assay (Elisa), ABL; type: biochemical; settings: ATP 100 μM, read-out: Abl Enzymetic assay (Elisa) % inhibition
Method: (§1) ABL Kinase Activity Assay
(§2) The disclosed compounds were assayed for their ability to inhibit the activity of ABL kinase. Nunc Maxisorb plates were coated with streptavidin by overnight incubation with 100 μL per well of 1 μg/ml streptavidin in DPBS. Prior to the experiment, the plates were washed with TBST (3×200 μL) and blocked for at least 3 hours by adding 150 μL of 5% BSA/TBST. The plates were washed with TBST (3×200 μL/well) and left dry immediately before the capture step.
(§3) The disclosed test compounds and controls (Gleevec) were prepared using the following assay buffer@10× desired final concentration (50 mM Tris pH 7.0, 0.02 mg/ml BSA, 10 mM MgCl2, 0.1 mM Na3VO4, 1 mM EGTA, 0.01% NP-40, 1 mM DTT in 10% glycerol/water). In a reaction plate, 5 μl test article (or control) and 30 μl ABL or ABL T315I (0.089 nM final concentration, in the above buffer) were added rapidly. The plate was incubated for 20 minutes. To the reaction plate was added ATP (100 μM final concentration) and AblTide (128 nM final concentration) in a volume of 15 μl. The plate was incubated at room temperature for one hour.
(§4) From the reaction plate, 40 μl was transferred to the streptavidin coated plate. The capture plate was incubated at room temperature for 30 minutes, then washed 3× with TBST. To the capture plate was added 100 μL/well of cell signaling anti-phospho tyrosine at a dilution of 1:3000 in 2% BSA/TBST. The plate was incubated for two hours at room temperature then washed 3× with TBST. To the capture plate was added 100 μL/well of alkaline phosphatase tagged goat anti mouse antibody at a dilution of 1:4000 in 2% BSA/TBST. The plate was incubated for one hour at room temperature then washed 3× with TBST.
(§5) The fluorescent readout was initiated by the addition of 100 μl/well of Attophos reagent (6 mg/10 mL). The reading was done on the Perkin Elmer Envision system.

MDA-MB-231 = assay: MTS assay, MDA-MB-231 cells; type: cell-based; settings: Homo sapiens, 72 hours
Method: (§6) Cells were maintained at 37° C., 5% CO2 in DMEM media supplemented with 1% fetal bovine serum, penicillin/streptomycin and fungizone (Invitrogen). Cells were seeded into 96-well tissue culture plates at 3000 per well and cultured at 37° C. for 18 hours. Test compounds were dissolved and diluted to 300× in DMSO then diluted 1:40 in DMEM. Cells were incubated with test compounds for 72 hours followed by incubation with tetrazolium compound (3-(4,5-dimethylthiazol-2-yl)-5-(3-carboxymethoxyphenyl)-2-(4-sulfophenyl)-2H-tetrazolium, inner salt; MTS) and the electron coupling reagent, phenazine methosulfate (PMS) for 4 hours. […] The ability of compounds to inhibit cell growth in this assay is correlated with the reduction of dehydrogenase enzyme activity found in metabolically active cells. The measurement of the absorbance of the formazan was assessed using an ENVISION™ (Perkin Elmer) microplate reader at 492 nm. The calculated IC50 value is the concentration of the test compound that causes a 50% decrease in the absorbance.

ABL T315I = ABL T315I (Homo sapiens, UniProt P00519, T315I); assay: ABL Kinase Activity Assay (Elisa), ABL T315I; type: biochemical; settings: ATP 100 μM, read-out: Abl(T315I) Enzymetic assay (Elisa) % inhibition
Method: as §1, §2, §3, §4, §5

NCI-H1299 = assay: MTS assay, NCI-H1299 cells; type: cell-based; settings: Homo sapiens, 72 hours
Method: as §6

PC-3 = assay: MTS assay, PC-3 cells; type: cell-based; settings: Homo sapiens, 72 hours
Method: as §6

KATO III = assay: MTS assay, KATO III cells; type: cell-based; settings: Homo sapiens, 72 hours
Method: as §6

DLD-1 = assay: MTS assay, DLD-1 cells; type: cell-based; settings: Homo sapiens, 72 hours
Method: as §6

PACA-2 = assay: MTS assay, PACA-2 cells; type: cell-based; settings: 72 hours
Method: as §6

Row | SMILES | inhibition at 10 µM (ABL) [%] | inhibition at 10 µM (MDA-MB-231) [%] | inhibition at 10 µM (ABL T315I) [%] | inhibition at 10 µM (NCI-H1299) [%] | inhibition at 10 µM (PC-3) [%] | inhibition at 10 µM (KATO III) [%] | inhibition at 10 µM (DLD-1) [%] | inhibition at 10 µM (PACA-2) [%]
1 | Fc1ccc(CNc2ncc3c(n2)-c2cccnc2Nc2cnccc2-3)c(Cl)c1 [Example 10, N-(2-chloro-4-fluorobenzyl)-9H-dipyrido[2,3-b:4′,3′-f]pyrimido[4,5-d]azepin-2-amine] | 80 to 100 | < 50 | 80 to 100 | < 50 | < 50 |  |  | 
2 | CC(CO)Nc1ncc2c(n1)-c1cccnc1Nc1cnccc1-2 (stereo not drawn) [Example 17, 2-(9H-dipyrido[2,3-b:4′,3′-f]pyrimido[4,5-d]azepin-2-ylamino)propan-1-ol] | 80 to 100 |  | 80 to 100 |  | < 50 | < 50 |  | 
3 | O=C1CCCN1CCCNc1ncc2c(n1)-c1cccnc1Nc1cnccc1-2 [Example 4, 1-[3-(9H-dipyrido[2,3-b:4′,3′-f]pyrimido[4,5-d]azepin-2-ylamino)propyl]pyrrolidin-2-one] | 50 to 79 | < 50 | 80 to 100 | < 50 | < 50 | < 50 | < 50 | 
4 | COc1cc(CCNc2ncc3c(n2)-c2cccnc2Nc2cnccc2-3)cc(OC)c1 [Example 38, N-[2-(3,5-dimethoxyphenyl)ethyl]-9H-dipyrido[2,3-b:4′,3′-f]pyrimido[4,5-d]azepin-2-amine] | 50 to 79 |  | < 50 |  | < 50 | < 50 | < 50 | < 50
5 | c1cnc2c(c1)-c1nc(NC3CCNCC3)ncc1-c1ccncc1N2 [Example 59, N-piperidin-4-yl-9H-dipyrido[2,3-b:4′,3′-f]pyrimido[4,5-d]azepin-2-amine] | 80 to 100 | 80 to 100 | 80 to 100 |  | 80 to 100 | 80 to 100 |  | 
6 | CCC(CC)Nc1ncc2c(n1)-c1cccnc1Nc1cnccc1-2 [Example 18, N-(1-ethylpropyl)-9H-dipyrido[2,3-b:4′,3′-f]pyrimido[4,5-d]azepin-2-amine] | 80 to 100 | < 50 | 80 to 100 | < 50 | < 50 | 50 to 79 | < 50 | 
7 | Fc1ccc(CNc2ncc3c(n2)-c2cccnc2Nc2ccccc2-3)c(F)c1 [Example 64, N-(2,4-difluorobenzyl)-9H-pyrido[2,3-b]pyrimido[4,5-d][1]benzazepin-2-amine] | 50 to 79 | < 50 | < 50 | < 50 | < 50 | < 50 | < 50 | 
8 | c1ccc(-c2cccc(CNc3ncc4c(n3)-c3cccnc3Nc3cnccc3-4)c2)cc1 [Example 45, N-(biphenyl-3-ylmethyl)-9H-dipyrido[2,3-b:4′,3′-f]pyrimido[4,5-d]azepin-2-amine] | 80 to 100 |  | 80 to 100 | 50 to 79 | < 50 | 80 to 100 | 80 to 100 | 80 to 100
9 | CN(C)CCCNc1ncc2c(n1)-c1cccnc1Nc1cnccc1-2 [Example 50, N′-9H-dipyrido[2,3-b:4′,3′-f]pyrimido[4,5-d]azepin-2-yl-N,N-dimethylpropane-1,3-diamine] | 50 to 79 |  | < 50 |  | < 50 | < 50 |  | < 50
10 | Brc1ccc(CCNc2ncc3c(n2)-c2cccnc2Nc2cnccc2-3)cc1 [Example 46, N-[2-(4-bromophenyl)ethyl]-9H-dipyrido[2,3-b:4′,3′-f]pyrimido[4,5-d]azepin-2-amine] | 80 to 100 |  | 80 to 100 | < 50 | < 50 | 50 to 79 | 50 to 79 | < 50
